Reference: ChEMBL document CHEMBL1201862, “PubChem BioAssay data set” (2004)
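96-well plates; 48 h exposure; 5 concentrations. Endpoints by linear interpolation between flanking doses. Not reached: highest tested concentration assigned. At the GI50, growth is halved.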 The source made the active and inactive calls. No stated cut-off is given here; in the data, active = GI50 up to about 1.1 µM and inactive = higher.

Key:
Assay in all cases: growth of human tumour cells (NCI), 48 h
U-251 = tested on: U-251
HOP-62 = tested on: HOP-62
HT-29 = tested on: HT-29
SN12C = tested on: SN12C
SNB-75 = tested on: SNB-75
CAKI-1 = tested on: CAKI-1
SK-MEL-5 = tested on: SK-MEL-5
RXF 393 = tested on: RXF 393
RPMI-8226 = tested on: RPMI-8226
MOLT-4 = tested on: MOLT-4
IGROV-1 = tested on: IGROV-1
SK-MEL-2 = tested on: SK-MEL-2
UACC-62 = tested on: UACC-62
OVCAR-4 = tested on: OVCAR-4
SNB-19 = tested on: SNB-19
SF-539 = tested on: SF-539
HL-60 = tested on: HL-60
UACC-257 = tested on: UACC-257
HOP-92 = tested on: HOP-92
OVCAR-3 = tested on: OVCAR-3

| SMILES | GI50 (U-251) | GI50 (HOP-62) | GI50 (HT-29) | GI50 (SN12C) | GI50 (SNB-75) | GI50 (CAKI-1) | GI50 (SK-MEL-5) | GI50 (RXF 393) | GI50 (RPMI-8226) | GI50 (MOLT-4) | GI50 (IGROV-1) | GI50 (SK-MEL-2) | GI50 (UACC-62) | GI50 (OVCAR-4) | GI50 (SNB-19) | GI50 (SF-539) | GI50 (HL-60) | GI50 (UACC-257) | GI50 (HOP-92) | GI50 (OVCAR-3) |
| --- | --- | --- | --- | --- | --- | --- | --- | --- | --- | --- | --- | --- | --- | --- | --- | --- | --- | --- | --- | --- |
| O=C1C(Cl)=C(N2CCN(CCOCCO)CC2)C(=O)c2ncccc21 | > 10 µM (inactive) | > 10 µM (inactive) | > 10 µM (inactive) | > 10 µM (inactive) | > 10 µM (inactive) | > 10 µM (inactive) | > 10 µM (inactive) | 3.69 µM (inactive) | 7.1 µM (inactive) | > 10 µM (inactive) | > 10 µM (inactive) | > 10 µM (inactive) | > 10 µM (inactive) | > 10 µM (inactive) | > 10 µM (inactive) | > 10 µM (inactive) | 3.35 µM (inactive) | > 10 µM (inactive) | 1.63 µM (inactive) | > 10 µM (inactive) |
| CCOC(=O)C(NC(=O)CC)(Nc1ccccc1OC)C(F)(F)F (stereo not drawn) | > 100 µM (inactive) | – | > 100 µM (inactive) | > 100 µM (inactive) | > 100 µM (inactive) | 13 µM (inactive) | > 100 µM (inactive) | > 100 µM (inactive) | > 100 µM (inactive) | > 100 µM (inactive) | > 100 µM (inactive) | > 100 µM (inactive) | > 100 µM (inactive) | > 100 µM (inactive) | > 100 µM (inactive) | > 100 µM (inactive) | > 100 µM (inactive) | > 100 µM (inactive) | > 100 µM (inactive) | > 100 µM (inactive) |
| CCCCOc1ccc(OCCCCCCCCCC[N+](C)(C)C)cc1 | 1.91 µM (inactive) | 3.62 µM (inactive) | 0.452 µM (active) | 3.62 µM (inactive) | 2.17 µM (inactive) | 3.73 µM (inactive) | 1.91 µM (inactive) | 0.796 µM (active) | 0.481 µM (active) | 1.38 µM (inactive) | 1.37 µM (inactive) | 2.01 µM (inactive) | 4.06 µM (inactive) | 2.86 µM (inactive) | 7.6 µM (inactive) | 3.24 µM (inactive) | 0.39 µM (active) | 5.08 µM (inactive) | 1.33 µM (inactive) | 2.1 µM (inactive) |
| COc1cc(/C=N/c2ccccn2)cc(OC)c1OC | > 100 µM (inactive) | > 100 µM (inactive) | > 100 µM (inactive) | > 100 µM (inactive) | > 100 µM (inactive) | > 100 µM (inactive) | > 93.1 µM (inactive) | 58.7 µM (inactive) | 65 µM (inactive) | > 100 µM (inactive) | > 100 µM (inactive) | > 100 µM (inactive) | > 100 µM (inactive) | > 100 µM (inactive) | 80.5 µM (inactive) | > 100 µM (inactive) | 1.87 µM (inactive) | > 100 µM (inactive) | > 100 µM (inactive) | > 100 µM (inactive) |
| O=C(O[C@@H](/C=C/c1ccccc1)P1(=O)N(Cc2ccccc2)[C@H]2CCCC[C@@H]2N1Cc1ccccc1)c1ccccc1 | 2.45 µM (inactive) | 2.82 µM (inactive) | 3.08 µM (inactive) | 2.53 µM (inactive) | 5.6 µM (inactive) | 2.66 µM (inactive) | 1.93 µM (inactive) | 2 µM (inactive) | 2.29 µM (inactive) | – | 4.79 µM (inactive) | 1.85 µM (inactive) | 2.12 µM (inactive) | 3.59 µM (inactive) | 5.81 µM (inactive) | 4.57 µM (inactive) | 2.39 µM (inactive) | 2.86 µM (inactive) | 2.86 µM (inactive) | 3.48 µM (inactive) |
